Consider five molecules from EP0686425A1, “PROCESS FOR PRODUCING MICROCAPSULE OF HYDROPHOBIC DRUG” (SANSUI CO., LTD., priority 1993, dated 1995).

For data set [1] the following is noted: cited from earlier work; for solubility in water: temperature not given.
Data set [2] relates to Japan white breeding rabbits. The settings on record: rabbit, in vivo. As to the method: Six medically inspected Japan white breeding rabbits (conventional) were given a haircut along the spine and 6 spots of 2x3 cm each were closed patched with 0.5 g of Composition No.6 powder or 0.25 g of a powder of the compound represented by chemical formula 2 using bandage and gauze. Evaluation was conducted for the degree of erythema, scab formation and edema formation at a time interval of after 4 hours, 1 day, 2 days, 3 days, 4 days and 5 days.
Evaluation standard (Draize method)
From the above table, the following primary irritancy was obtained. Irritation index was obtained from Equation 1. Irritation index was obtained from the following table. Irritation index and safety classification are as follows. [formula]
Evaluation was conducted according to the method employed in Example 6.

The nature of data set [3]: Elution test of microcapsule powder in Isopal G. The following applies: unencapsulated compound of chemical formula 1, temperature not given. The data set is classed as physicochemical. As to the method: Elution test was conducted on microcapsule powder using Isopal G (aliphatic solvent EXXON Chemical company) which dissolves the compound of the chemical formula 1 in an optional rate. […] of the capsule powder was added to 10ml of Isopal G, and the mixture was maintained at room temperature or at 40 °C for 12 hours, and the amount of the compound of the chemical formula 1 eluted from the microcapsules was determined by gas chromatography. The rate of elution (active ingredient in Isopal G/added amount of active ingredient) was calculated.

The structures appear in SMILES notation.

As to `CCCCCCCCn1sc(Cl)c(Cl)c1=O` [Compound of formula 4, 4,5-Dichloro-2-n-octyl-4-isothiazoline-3-one], in data set [1], the “water solubility (25 °C)” value is listed as 6 ppm. Moreover, in data set [2], the “Skin irritation, safety classification (irritation index)” value is “strong irritation”. As to `N#CSCSc1nc2ccccc2s1` [Compound of the chemical formula 7, thiocyano methylthiobenzothiazol], in data set [1], the solubility in water is reported as 100 ppm. Besides, in data set [2], the “Skin irritation, safety classification (irritation index)” value was “medium irritant”. Take `S=C=Nc1ccc(Cl)c(Cl)c1` [Unencapsulated, 3,4-dichlorophenyl-isothiocyanate]: the “rate of elution (active ingredient in Isopal G/added amount of active ingredient)” value in data set [3] is reported as 100% elution. `O=S1(=O)CC(Cl)(Cl)C(Cl)(Cl)C1` [compound of the chemical formula 2, Tetrachlorotetrahydrothiophene-1,1-dioxide]: in data set [1], the “water solubility (25 °C)” value was “about 900 ppm”. In the case of `CNC(=O)Oc1cccc2c1OC(C)(C)C2` [compound of the chemical formula 6, 2,3-dihydro-2,2-dimethylbenzofuran-7-yl-methylcarbamate], the solubility in water in data set [1] is on record as 700 ppm.
